≈ marks a conversion by molar mass, not a printed value. Where two headings read alike, the source gives them in different places.
Key:
[1] = system: E. coli ATCC 25922; experiment: Antibacterial assay against E. coli; type: cell-based, Escherichia coli; settings: top concentration 96 μg/mL (64 μg/mL for 3 and 8); for MIC: Escherichia coli, ATCC25922, MIC = lowest concentration inhibiting ≥ 95% of growth; for MIC Ec: MIC = lowest concentration inhibiting ≥ 95% of growth
[2] = system: A. baumannii MB5973; experiment: Antibacterial assay against A. baumannii; type: cell-based, Acinetobacter baumannii; settings: MIC = lowest concentration inhibiting ≥ 95% of growth, top concentration 96 μg/mL (64 μg/mL for 3 and 8); for MIC: Acinetobacter baumannii
[3] = system: human liver adenocarcinoma cell line (HepG2); experiment: Cytotoxicity assay against HepG2; type: cell-based; settings: for IC50: 10 two-fold dilutions starting at 150, 100 (3, 8) or 30.0 μg/mL (1, 5)
[4] = system: methicillin-resistant S. aureus (MRSA) MB5393; experiment: Antibacterial assay against MRSA; type: cell-based, Staphylococcus aureus; settings: for MIC: Staphylococcus aureus; for MIC / MIC MRSA: MIC = lowest concentration inhibiting ≥ 95% of growth after overnight incubation, top concentration 96 μg/mL (64 μg/mL for 3 and 8)
[5] = system: A. fumigatus ATCC46645; experiment: Antifungal assay against A. fumigatus; type: cell-based, Aspergillus fumigatus; settings: A. fumigatus ATCC 46645, MIC = lowest concentration inhibiting ≥ 95% of growth, top concentration 96 μg/mL (64 μg/mL for 3 and 8); for MIC: Aspergillus fumigatus, ATCC46645
[6] = system: M. tuberculosis H37Ra; experiment: Antibacterial assay against M. tuberculosis; type: cell-based, Mycobacterium tuberculosis; settings: for MIC: Mycobacterium tuberculosis; for MIC / MIC Mt: M. tuberculosis H37Ra, MIC = lowest concentration inhibiting ≥ 95% of growth, top concentration 96 μg/mL (64 μg/mL for 3 and 8)
[7] = Homo sapiens, HepG2, HepG-2 cytotoxicity
[8] = MRSA MB5393, read-out: MIC MRSA
[9] = MRSA, read-out: MIC MRSA, MRSA MB5393

| Molecule | MIC [1] [mg/L] | MIC [2] [mg/L] | IC50 [3, 7] [µM] | MIC [4, 8] [mg/L] | MIC [5] [mg/L] | IC50 ([3]; HepG-2 cytotoxicity) [µM] | MIC [4, 9] [mg/L] | MIC [6] [mg/L] | growth-inhibitory activity against HepG2 (in words) ([3]; abstract statement) | growth-inhibitory activity against methicillin-resistant Staphylococcus aureus (in words) ([4]; abstract statement) | growth-inhibitory activity against Mycobacterium tuberculosis (in words) ([6]; abstract statement) | MIC Ec [1] [mg/L] | MIC Ab [2] [mg/L] | MIC Af [5] [mg/L] | MIC MRSA ([4]; MRSA MB5393) [mg/L] | MIC Mt [6] [mg/L] |
| --- | --- | --- | --- | --- | --- | --- | --- | --- | --- | --- | --- | --- | --- | --- | --- | --- |
| C=C(C)C(O)CCC(C)=CCC12OC(C)(C)C(O)C=C1C(=O)c1c(O)cc(O)cc1C2=O (stereo not shown) [Compound 1, Napyradiomycin A3] | > 96 | > 96 | > 67.8 | > 96 |  |  |  |  |  |  |  |  |  |  |  |  |
| CC1(C)O[C@@]2(C[C@H]3C(C)(C)[C@@H](Cl)CC[C@]3(C)O)C(=O)c3cc(O)cc(O)c3C(=O)C2=C[C@H]1Cl [Compound 2, Napyradiomycin B7a] | > 96 | > 96 | < 50 | 48 (≈ 96.5 µM) | > 96 | 41.7 | 3 to 48 (≈ 6.03 to 96.5 µM) | 12 to 24 (≈ 24.1 to 48.2 µM) |  |  |  |  |  |  |  |  |
| CC1(C)O[C@@]2(C[C@H]3C(C)(C)[C@@H](Cl)CC[C@]3(C)O)C(=O)c3cc(O)cc(O)c3C(=O)C2=C[C@@H]1Cl [Compound 3, Napyradiomycin B7b] | > 64 | > 64 | 110 | > 64 | > 64 |  |  | > 64 |  |  |  |  |  |  |  |  |
| CC1(C)O[C@@]2(C[C@H]3C(C)(C)[C@@H](Cl)CC[C@]3(C)O)C(=O)c3cc(O)cc(O)c3C(=O)[C@@]2(O)C[C@H]1Cl [Compound 4, Napyradiomycin SC] | > 96 | > 96 | 264 | > 96 | > 96 |  |  | 24 to 48 (≈ 46.6 to 93.1 µM) |  |  |  |  |  |  |  |  |
| CC1=CCC23OC(C)(C)C(Cl)CC2(Cl)C(=O)c2c(cc(O)cc2C3=O)OCC(C)=CCC1 (stereo not shown) [Compound 5, Napyradiomycin D1] | > 96 | > 96 |  | 12 to 24 (≈ 25 to 50.1 µM) |  |  | 3 to 48 (≈ 6.26 to 100 µM) | 24 to 48 (≈ 50.1 to 100 µM) | significant growth-inhibitory activity | significant growth-inhibitory activity | significant growth-inhibitory activity |  |  |  |  |  |
| CC1(C)OC2=C(CC1Cl)C(=O)c1c(O)cc(O)cc1C2=O (stereo not drawn) [Compound 7, 3-chloro-6,8-dihydroxy-8-α-lapachone] |  |  |  |  |  | 187 |  |  |  |  |  | >96 | >96 | >96 | 48 to 96 | 12 to 24 |
| COc1cc(O)c2c(c1)C(=O)C1=C(CC(Cl)C(C)(C)O1)C2=O (stereo not drawn) [Compound 8, 3-chloro-6-hydroxy-8-methoxy-α-lapachone] |  |  |  |  |  | 30.2 |  |  |  |  |  | >64 | >64 | >64 | >64 | >64 |
| CC(=CCCC(C)=CCC12OC(C)(C)C(Cl)CC1(Cl)C(=O)c1c(O)cc(O)cc1C2=O)CO (stereo not shown) [Compound 10, 18-hydroxynapyradiomycin A1] |  |  |  |  |  | 64.4 |  |  |  |  |  | >96 | >96 | >96 | 48 to 96 | >96 |
| CC1(C)O[C@@]2(C[C@H]3C(C)(C)[C@@H](Cl)CC[C@]3(C)O)C(=O)c3cc(O)cc(O)c3C(=O)[C@@]2(Cl)C[C@H]1Cl [Compound 13, napyradiomycin B4] |  |  |  |  |  |  |  |  |  |  |  | >96 | >96 | >96 | 12 to 24 | 12 to 24 |
| napyradiomycin A2a [Compound 11] |  |  |  |  |  | 30.4 |  |  |  |  |  | >96 | >96 | >96 | 12 to 24 | 48 to 96 |
| napyradiomycin A2b [Compound 12] |  |  |  |  |  | 28.6 |  |  |  |  |  | >96 | >96 | >96 | 12 to 24 | 48 to 96 |
| napyradiomycin B2 [Compound 14] |  |  |  |  |  | 27.1 |  |  |  |  |  | >96 | >96 | >96 | 3 to 6 | 24 to 48 |
| napyradiomycin B5 [Compound 15] |  |  |  |  |  | 40.1 |  |  |  |  |  | >96 | >96 | >96 | 12 to 24 | 24 to 48 |
| napyradiomycin B6 [Compound 9] |  |  |  |  |  | 71.2 |  |  |  |  |  | >96 | >96 | >96 | 48 to 96 | 12 to 24 |
